Test results published in US20250281464A1, “TREATMENT OF PATHOGENIC NEISSERIA SP. INFECTION WITH TRIAZOLE ANTIFUNGAL AGENTS” (Virginia Tech Intellectual Properties, Inc., priority 2022, published 2025).
In brackets after ≈: the same amount, converted by molar mass. Read-outs that look alike come from different tables or passages of the source.

Columns and labels:
N. gonorrhoeae isolates = test: MIC against panel of N. gonorrhoeae clinical isolates; assay type: cell-based, Neisseria gonorrhoeae; conditions: for MIC50 / MIC90: Neisseria gonorrhoeae; for MIC50: read-out: MIC50; for MIC90: read-out: MIC90
L. crispatus = test: MIC against commensal vaginal Lactobacillus strains; assay type: cell-based, Lactobacillus crispatus; conditions: for MIC: Lactobacillus crispatus
From the text: (§1) N. gonorrhoeae pathogenesis greatly depends on colonization of the reproductive tract. One of the natural barriers of such colonization is an intact healthy microbiome. Species of lactobacilli present in the genitourinary tract play a significant role in hindering colonization by Neisseria(1).
(§2) A healthy vaginal microbiome that is dominated by Lactobacillus spp. is less susceptible to N. gonorrhoeae infection and other sexually transmitted diseases (STDs). […] We tested the activity of azoles against important members of healthy vaginal microbiota that inhibit N. gonorrhoeae colonization.

L. gasseri = test: as above; assay type: cell-based, Lactobacillus gasseri; conditions: for MIC: Lactobacillus gasseri
From the text: as §1, §2

L. johnsonii = test: as above; assay type: cell-based, Lactobacillus johnsonii
From the text: as §1, §2

N. gonorrhoeae = test: Female mouse model of N. gonorrhoeae genital tract infection; assay type: in vivo; conditions: N. gonorrhoeae FA1090, low dose 100 mg/kg orally
Description: FIG. 1—Efficacy of Ravuconazole one oral dose in a mouse model against N. gonorrhoeae FA1090. N. gonorrhoeae burden (average±standard deviation log 10 CFU/mL) after treatment with a single dose of ravuconazole (40 mg/kg) (fosravuconazole/E-1224 Prodrug) via oral gavage. As a negative control, mice (n=8) were administered the vehicle (water), As a positive control, a group of mice received a single intraperitoneal dose of ceftriaxone (15 mg/kg in water). Vaginal swabs were collected daily and cultured to determine the number of viable bacteria. The limit of detection was 10 CFU/mL. The data were analyzed via a two-way ANOVA followed by Dunnett's test for multiple comparisons. Asterisks indicate a statistical significant difference between mice treated with either ravuconazole or ceftriaxone as compared to the vehicle-treated mice.
FIG. 2A-2C—Efficacy of Ravuconazole one oral dose in a mouse model against drug-resistant strains. […] N. gonorrhoeae burden (average±standard deviation log 10 CFU/mL) after treatment with a single dose of ravuconazole (160 mg/kg) (fosravuconazole/E-1224 Prodrug) via oral gavage. […] The data were analyzed via a two-way ANOVA followed by Dunnett's test for multiple comparisons. […]
FIG. 3—Efficacy of 3 doses of isavuconazole against the vaginal burden of N. gonorrhoeae. […] The data were analyzed via a two-way ANOVA followed by Dunnett's test for multiple comparisons. […]

[1] = MIC against normal gut microbiota; assay type: cell-based
From the text: (§3) Disrupting the intestinal microbiota using broad-spectrum antimicrobial therapy increases the susceptibility of hosts to C. difficile colonization.

Bacteroides dorei = test: MIC against normal gut microbiota; assay type: cell-based; conditions: Bacteroides dorei (2 strains)
From the text: as §3

Bacteroides fragilis = test: MIC against normal gut microbiota; assay type: cell-based; conditions: Bacteroides fragilis (4 strains)
From the text: as §3

[2] = system: Bifidobacterium angulatum; test: MIC against normal gut microbiota; assay type: cell-based; conditions: Bifidobacterium angulatum (1 strain)
From the text: as §3

Enterococcus faecalis = test: MIC against normal gut microbiota; assay type: cell-based; conditions: Enterococcus faecalis (1 strain)
From the text: as §3

Enterococcus faecium = test: MIC against normal gut microbiota; assay type: cell-based; conditions: Enterococcus faecium (1 strain)
From the text: as §3

Escherichia coli = test: MIC against normal gut microbiota; assay type: cell-based; conditions: Escherichia coli (1 strain)
From the text: as §3

Lactobacillus brevis = test: MIC against normal gut microbiota; assay type: cell-based; conditions: Lactobacillus brevis (1 strain)
From the text: as §3

Lactobacillus casei = test: MIC against normal gut microbiota; assay type: cell-based; conditions: Lactobacillus casei (1 strain)
From the text: as §3

Lactobacillus rhamnosus = test: MIC against normal gut microbiota; assay type: cell-based; conditions: Lactobacillus rhamnosus (1 strain)
From the text: as §3

Staphylococcus aureus = test: MIC against normal gut microbiota; assay type: cell-based; conditions: Staphylococcus aureus (1 strain)
From the text: as §3

N. meingitidis = test: MIC against Neisseria spp.; assay type: cell-based, Neisseria meningitidis; conditions: N. meingitidis (5 strains)
N. flavescens = test: MIC against Neisseria spp.; assay type: cell-based; conditions: N. flavescens (1 strain)
From the text: (§4) Intrigued by the specificity and potent activity of azoles against N. gonorrhoeae, we evaluated the extent of the azoles' antibacterial activity against other Neisseria species (Table 8).

N. lactamica = test: MIC against Neisseria spp.; assay type: cell-based; conditions: N. lactamica (1 strain)
From the text: as §4

N. mucosa = test: MIC against Neisseria spp.; assay type: cell-based; conditions: N. mucosa (1 strain)
From the text: as §4

[3] = Table 1, 104 N. gonorrhoeae isolates
[4] = Table 3, 103 N. gonorrhoeae isolates with different resistance profiles

MIC50 (N. gonorrhoeae isolates; [3]): 0.5 µg/mL (≈ 1.14 µM)
MIC90 (N. gonorrhoeae isolates; [3]): 1 µg/mL (≈ 2.29 µM)
MIC50 (N. gonorrhoeae isolates; [4]): 0.5 µg/mL (≈ 1.14 µM)
MIC90 (N. gonorrhoeae isolates; [4]): 1 µg/mL (≈ 2.29 µM)
MIC Range (N. gonorrhoeae isolates; [3]): 0.015 to 2 µg/mL
MIC Range (N. gonorrhoeae isolates; [4]): 0.015 to 4 µg/mL
MIC (L. crispatus; L. crispatus HM-103): > 256 µg/mL
MIC (L. crispatus; L. crispatus HM-371): > 256 µg/mL
MIC (L. crispatus; L. crispatus HM-638): > 256 µg/mL
MIC Range (L. crispatus; Table 6, L. crispatus (3 strains)): ≥256 µg/mL
MIC (L. gasseri; L. gasseri HM-407): > 256 µg/mL
MIC (L. gasseri; L. gasseri HM-642): > 256 µg/mL
MIC (L. gasseri; L. gasseri HM-644): > 256 µg/mL
MIC (L. gasseri; L. gasseri HM-647): > 256 µg/mL
MIC Range (L. gasseri; Table 6, L. gasseri (4 strains)): ≥256 µg/mL
MIC (L. johnsonii; Lactobacillus johnsonii, L. johnsonii HM-643): > 256 µg/mL
MIC Range (L. johnsonii; Table 6, L. johsonii (2 strains)): ≥256 µg/mL
MIC Range (N. meingitidis): 0.25 to 0.5 µg/mL
MIC Range (N. flavescens): 16 µg/mL (≈ 36.6 µM)
MIC Range (N. lactamica): 1 µg/mL (≈ 2.29 µM)
MIC Range (N. mucosa): 8 µg/mL (≈ 18.3 µM)
SMILES: C[C@@H](c1nc(-c2ccc(C#N)cc2)cs1)[C@](O)(Cn1cncn1)c1cc(F)ccc1F [Isavuconazole]
infected mice in which the infection was cleared (N. gonorrhoeae; second day): 50%
infected mice in which the infection was cleared (N. gonorrhoeae; third day of treatment): 100%
MIC Range ([1]; Bacteroides adolescentis (2 strains)): >256 µg/mL
MIC Range ([1]; Bacteroides breve (2 strains)): >256 µg/mL
MIC Range ([1]; Bacteroides longum (2 strains)): >256 µg/mL
MIC Range (Bacteroides dorei): >256 µg/mL
MIC Range (Bacteroides fragilis): >256 µg/mL
MIC Range [2]: >256 µg/mL
MIC Range (Enterococcus faecalis): >256 µg/mL
MIC Range (Enterococcus faecium): >256 µg/mL
MIC Range (Escherichia coli): >256 µg/mL
MIC Range (Lactobacillus brevis): >256 µg/mL
MIC Range (Lactobacillus casei): >256 µg/mL
MIC Range (Lactobacillus rhamnosus): >256 µg/mL
MIC Range (Staphylococcus aureus): >256 µg/mL
